{"source": "patent US11000601B2", "about": "“Conjugated biological molecules, pharmaceutical compositions and methods” (OBI Pharma, Inc., priority 2016, dated 2021)", "key": {"[1]": {"tested_on": "NCI-H526 (ATCC CRL-5811) variant small cell lung cancer cells", "test": "Xenograft tumor model of human small cell lung cancer NCI-H526 in female nu/nu mice: tumor volume, T/C, TGI", "format": "in vivo", "conditions": "for Tumor Volume (mm^3), individual animal: animals No. 1-8; for Tumor Volume (mm^3), individual animal / Tumor Volume (mm^3), Mean: once weekly x 4 (10 mg/kg IV; MMAE 0.191 mg/kg IP); for Tumor Volume (mm^3), Mean: group mean; for % T/C: treatment/control x 100%, <=42% considered significant; for % TGI: vs vehicle control", "method": "In a xenograft tumor model of human small cell lung cancer, viable NCI-H526 stage E carcinoma; variant small cell lung cancer cells (ATCC CRL-5811), were subcutaneously (SC) implanted (1×10^6 cells with matrigel (1:0.8) in 0.2 mL/mouse) into the right flank of female nu/nu mice. Tumor implanted mice were divided into five treatment groups, each group containing eight animals, and test agent administrations were initiated one day after cell implantation (denoted as Day 1).\nThe NCI-H526 tumor cell line was purchased from American Type Culture Collection (ATCC CRL-5811, variant small cell lung carcinoma) and cultured in Eurofins Panlabs Taiwan, Ltd. The cells were cultured in RPMI-1640 medium containing 10% fetal bovine serum (FBS) at 37° C. in 5% CO2 incubator and implanted subcutaneously in the right flank of each mouse.\nFemale nu/nu nude, aged 6-7 weeks, were obtained from BioLasco Taiwan (under Charles River Laboratories Licensee) and used. The animals were housed in individually ventilated cages (IVC, 36 Mini Isolator system). The allocation for 5 animals was 27×20×14 in cm. All animals were maintained in a hygienic environment under controlled temperature (20-24° C.) and humidity (30-70%) with 12-hour light/dark cycle. Free access to standard lab diet [MFG (Oriental Yeast Co., Ltd., Japan)] and autoclaved tap water were granted. All aspects of this work including housing, experimentation, and animal disposal were performed in general accordance with the “Guide for the Care and Use of Laboratory Animals: Eighth Edition” (National Academies Press, Washington, D.C., 2011) in our AAALAC-accredited laboratory animal facility. In addition, the animal care and use protocol was reviewed and approved by the IACUC at Eurofins Panlabs Taiwan, Ltd.\nThe tumor volumes, body weights, mortality, and signs of overt toxicity were monitored and recorded twice weekly for 45 days. Tumor growth inhibition was calculated as T/C (treatment/control)×100%. A T/C value≤42% compared to that of the vehicle control group was considered significant anti-tumor activity. Two-way ANOVA followed by Bonferroni test was used to ascertain the statistically significant significance of groups compared to respective vehicle control (*p<0.05)."}, "[2]": {"test": "Body weight in male BALB/c nude mice bearing HPAC established tumors", "conditions": "QW x 4, MMAE 0.191 mg/kg IP; for Body Weight (g), Mean: group mean; for Body Weight (g), Mean / Body Weight: ADC (OBI-999) and OBI-888 10 mg/kg IV; for Body Weight: individual animals", "procedure": "Male nu/nu nude, aged 6-8 weeks, were obtained from Shanghai Lingchang and used. The mice were kept in individual ventilation cages at constant temperature and humidity with four animals in each cage (temperature: 20-26° C. and humidity: 40-70%). The cages were made of polycarbonate and the size was 300 mm×200 mm×180 mm. The bedding material was corn cob, which was changed twice per week. Animals had free access to irradiation sterilized dry granule food and drinking water during the entire study period. The identification labels for each cage contained the following information: number of animals, sex, strain, date received, treatment, study number, group number and the starting date of the treatment."}}, "note": "Values joined by “and” are separate entries in the source; they are usually repeats but may differ in a detail not shown here. Equal entries are not always repeated. Marks after values point to notes of the source that are not given here. Square brackets hold non-standard residues; d marks the D form. Peptide text beside a SMILES is read from it. * marks the point of attachment. Dolaproine = CO[C@@H]([C@@H]1CCCN1)[C@@H](C)C(=O)O; Dil = CC[C@H](C)[C@H](NC)[C@@H](CC(=O)O)OC; X1 = C[C@@H](N*)[C@@H](O)c1ccccc1; NMeV = CN[C@H](C(=O)O)C(C)C"}
{"compound": "CC[C@H](C)[C@@H]([C@@H](CC(=O)N1CCC[C@H]1[C@H](OC)[C@@H](C)C(=O)N[C@H](C)[C@@H](O)c1ccccc1)OC)N(C)C(=O)[C@@H](NC(=O)[C@@H](NC)C(C)C)C(C)C", "note": "[MMAE, monomethyl auristatin E] (H-[NMeV]V[Dil][Dolaproine]-X1)", "values": [{"measurement": "maximum percent TGI", "setting": "[1]; 0.191 mg/kg IP weekly, Day 18", "value": 55, "unit": "%"}, {"measurement": "anti-tumor activity (in words)", "setting": "[1]; 0.191 mg/kg IP weekly, over the course of the study", "value": "moderate anti-tumor activity"}, {"measurement": "Tumor Volume (mm^3), individual animal", "setting": "[1]; Day 1", "value": "75 mm^3 and 108 mm^3 and 81 mm^3 and 83 mm^3 and 99 mm^3 and 60 mm^3 and 68 mm^3 and 91 mm^3"}, {"measurement": "Tumor Volume (mm^3), Mean", "setting": "[1]; Day 1", "value": 83, "unit": "mm^3"}, {"measurement": "% T/C", "setting": "[1]; Day 1", "value": 108, "unit": "%"}, {"measurement": "Tumor Volume (mm^3), individual animal", "setting": "[1]; Day 4", "value": "80 mm^3 (2×) and 127 mm^3 and 101 mm^3 and 88 mm^3 and 115 mm^3 and 85 mm^3 and 108 mm^3"}, {"measurement": "Tumor Volume (mm^3), Mean", "setting": "[1]; Day 4", "value": 98, "unit": "mm^3"}, {"measurement": "% T/C", "setting": "[1]; Day 4", "value": 120, "unit": "%"}, {"measurement": "% TGI", "setting": "[1]; Day 4", "value": "−20", "unit": "%"}, {"measurement": "Tumor Volume (mm^3), individual animal", "setting": "[1]; Day 8", "value": "94 mm^3 (2×) and 74 mm^3 (2×) and 83 mm^3 and 70 mm^3 and 82 mm^3 and 121 mm^3"}, {"measurement": "Tumor Volume (mm^3), Mean", "setting": "[1]; Day 8", "value": 87, "unit": "mm^3"}, {"measurement": "% T/C", "setting": "[1]; Day 8", "value": 97, "unit": "%"}, {"measurement": "% TGI", "setting": "[1]; Day 8", "value": 3, "unit": "%"}, {"measurement": "Tumor Volume (mm^3), individual animal", "setting": "[1]; Day 11", "value": "74 mm^3 and 86 mm^3 and 89 mm^3 and 104 mm^3 and 121 mm^3 and 67 mm^3 and 77 mm^3 and 79 mm^3"}, {"measurement": "Tumor Volume (mm^3), Mean", "setting": "[1]; Day 11", "value": 87, "unit": "mm^3"}, {"measurement": "% T/C", "setting": "[1]; Day 11", "value": 68, "unit": "%"}, {"measurement": "% TGI", "setting": "[1]; Day 11", "value": 32, "unit": "%"}, {"measurement": "Tumor Volume (mm^3), individual animal", "setting": "[1]; Day 15", "value": "82 mm^3 and 133 mm^3 and 137 mm^3 and 101 mm^3 and 144 mm^3 and 89 mm^3 and 172 mm^3 and 123 mm^3"}, {"measurement": "Tumor Volume (mm^3), Mean", "setting": "[1]; Day 15", "value": 123, "unit": "mm^3"}, {"measurement": "% T/C", "setting": "[1]; Day 15", "value": 71, "unit": "%"}, {"measurement": "% TGI", "setting": "[1]; Day 15", "value": 29, "unit": "%"}, {"measurement": "Tumor Volume (mm^3), individual animal", "setting": "[1]; Day 18", "value": "80 mm^3 and 199 mm^3 and 246 mm^3 and 169 mm^3 and 187 mm^3 and 101 mm^3 and 281 mm^3 and 202 mm^3"}, {"measurement": "Tumor Volume (mm^3), Mean", "setting": "[1]; Day 18", "value": 183, "unit": "mm^3"}, {"measurement": "% T/C", "setting": "[1]; Day 18", "value": 45, "unit": "%"}, {"measurement": "% TGI", "setting": "[1]; Day 18", "value": 55, "unit": "%"}, {"measurement": "Tumor Volume (mm^3), individual animal", "setting": "[1]; Day 22", "value": "74 mm^3 and 618 mm^3 and 530 mm^3 and 337 mm^3 and 317 mm^3 and 152 mm^3 and 621 mm^3 and 401 mm^3"}, {"measurement": "Tumor Volume (mm^3), Mean", "setting": "[1]; Day 22", "value": 381, "unit": "mm^3"}, {"measurement": "% T/C", "setting": "[1]; Day 22", "value": 52, "unit": "%"}, {"measurement": "% TGI", "setting": "[1]; Day 22", "value": 48, "unit": "%"}, {"measurement": "Tumor Volume (mm^3), individual animal", "setting": "[1]; Day 25", "value": "70 mm^3 and 1163 mm^3 and 1095 mm^3 and 483 mm^3 and 525 mm^3 and 249 mm^3 and 1078 mm^3 and 535 mm^3"}, {"measurement": "Tumor Volume (mm^3), Mean", "setting": "[1]; Day 25", "value": "650* mm^3"}, {"measurement": "% T/C", "setting": "[1]; Day 25", "value": 58, "unit": "%"}, {"measurement": "% TGI", "setting": "[1]; Day 25", "value": 42, "unit": "%"}, {"measurement": "Tumor Volume (mm^3), individual animal", "setting": "[1]; Day 29", "value": "90 mm^3 and 1756 mm^3 and 1410 mm^3 and 853 mm^3 and 522 mm^3 and 431 mm^3 and 1313 mm^3 and 845 mm^3"}, {"measurement": "Tumor Volume (mm^3), Mean", "setting": "[1]; Day 29", "value": "903* mm^3"}, {"measurement": "% T/C", "setting": "[1]; Day 29", "value": 48, "unit": "%"}, {"measurement": "% TGI", "setting": "[1]; Day 29", "value": 52, "unit": "%"}, {"measurement": "Tumor Volume (mm^3), individual animal", "setting": "[1]; Day 31", "value": "173 mm^3 and 1901 mm^3 and 1682 mm^3 and 1172 mm^3 and 657 mm^3 and 550 mm^3 and 1595 mm^3 and 1044 mm^3"}, {"measurement": "Tumor Volume (mm^3), Mean", "setting": "[1]; Day 31", "value": "1097* mm^3"}, {"measurement": "% T/C", "setting": "[1]; Day 31", "value": 48, "unit": "%"}, {"measurement": "% TGI", "setting": "[1]; Day 31", "value": 52, "unit": "%"}, {"measurement": "Tumor Volume (mm^3), individual animal", "setting": "[1]; Day 36", "value": "126 mm^3 and 3047 mm^3 and 2480 mm^3 and 2090 mm^3 and 759 mm^3 and 1032 mm^3 and 2538 mm^3 and 1318 mm^3"}, {"measurement": "Tumor Volume (mm^3), Mean", "setting": "[1]; Day 36", "value": 1674, "unit": "mm^3"}, {"measurement": "Tumor Volume (mm^3), individual animal", "setting": "[1]; Day 39", "value": "56 mm^3 and 4380 mm^3 and 2713 mm^3 and 2836 mm^3 and 841 mm^3 and 1304 mm^3 and 3040 mm^3 and 1339 mm^3"}, {"measurement": "Tumor Volume (mm^3), Mean", "setting": "[1]; Day 39", "value": 2064, "unit": "mm^3"}, {"measurement": "Body Weight (g), Mean", "setting": "[2]; Day 0", "value": 24.2, "unit": "g"}, {"measurement": "Body Weight", "setting": "[2]; Day 0", "value": "25.4 g and 24.2 g and 23.3 g and 24.0 g and 22.7 g"}, {"measurement": "Body Weight (g), Mean", "setting": "[2]; Day 3", "value": 22.1, "unit": "g"}, {"measurement": "Body Weight", "setting": "[2]; Day 3", "value": "21.8 g and 22.4 g and 21.5 g and 21.6 g (2×) and 24.0 g and 20.7 g and 23.1 g"}, {"measurement": "Body Weight (g), Mean", "setting": "[2]; Day 4", "value": 21.9, "unit": "g"}, {"measurement": "Body Weight", "setting": "[2]; Day 4", "value": "21.0 g and 21.3 g and 20.5 g and 22.0 g and 19.6 g and 22.1 g"}, {"measurement": "Body Weight (g), Mean", "setting": "[2]; Day 7", "value": 23.6, "unit": "g"}, {"measurement": "Body Weight", "setting": "[2]; Day 7", "value": "18.8 g and 25.1 g and 27.0 g and 21.7 g and 23.8 g"}, {"measurement": "Body Weight", "setting": "[2]; Day 9", "value": 22.2, "unit": "g"}, {"measurement": "Body Weight", "setting": "[2]; Day 10", "value": 26.0, "unit": "g"}, {"measurement": "Body Weight", "setting": "[2]; Day 14", "value": "24.4 g and 26.0 g"}, {"measurement": "Body Weight", "setting": "[2]; Day 17", "value": "23.9 g and 26.0 g and 23.6 g"}, {"measurement": "Body Weight", "setting": "[2]; Day 21", "value": 23.8, "unit": "g"}, {"measurement": "Body Weight (g), Mean", "setting": "[2]; Day 28", "value": 25.4, "unit": "g"}, {"measurement": "Body Weight", "setting": "[2]; Day 31", "value": "25.0 g and 25.4 g"}, {"measurement": "Body Weight (g), Mean", "setting": "[2]; Day 35", "value": 26.0, "unit": "g"}, {"measurement": "Body Weight", "setting": "[2]; Day 35", "value": 27.2, "unit": "g"}, {"measurement": "Body Weight", "setting": "[2]; Day 37", "value": "26.7 g and 24.0 g"}, {"measurement": "Animal status (Died / Euthanized)", "setting": "[2]; individual animal, OBI-888 10 mg/kg IV", "value": "Died and Euthanized"}]}
